Measurements reported in paper PMC11892739, “Site-specific molecular glues for the 14-3-3/Tau pS214 protein–protein interaction via reversible covalent imine tethering” (RSC Medicinal Chemistry, 2025).

Legend:
[1] = molecular target: T1, 14-3-3γ/Tau pS324 complex (Homo sapiens, UniProt P61981); assay: Differential scanning fluorimetry of 14-3-3γ with Tau pS324 peptide and compounds; type: binding; details: compound 30 equiv., Tau pS324 10 equiv.
T1 construct: made in house; host or cells: NiCo21 (DE3) E. coli
T1 sequence (P61981 whole entry, other chains not shown): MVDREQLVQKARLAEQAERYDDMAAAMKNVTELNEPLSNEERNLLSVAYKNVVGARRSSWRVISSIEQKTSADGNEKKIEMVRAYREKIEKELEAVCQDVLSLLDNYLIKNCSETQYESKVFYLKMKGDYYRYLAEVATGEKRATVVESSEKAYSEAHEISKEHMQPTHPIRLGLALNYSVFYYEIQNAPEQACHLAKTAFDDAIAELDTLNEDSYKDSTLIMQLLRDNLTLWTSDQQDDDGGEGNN
Protocol: (§1) Fig. 5 a Phospho-site selective 14-3-3/Tau PPI stabilization. b SF250μM of selected compounds for stabilization of the 14-3-3γ complex with Tau pS214 and Tau pS324 peptides based on the internal DMSO reference. Mean of two separately performed experiments (see ESI ^† Fig. S9 for the corresponding binding curves). c Differential scanning fluorimetry assay results. Identified melting temperatures (Tm) of 14-3-3γ in the presence of the Tau pS214 or pS324 peptide and compounds 1 and 18. […]
(§2) chromatography (HisTrap high performance cartridges, Cytiva). […] Dialyzed protein was concentrated to ∼40 mg/mL, analyzed by Q -Tof LC/MS, and aliquots were flash -frozen for storage at −80 °C. […]
(§3) DSF was performed using 40 µl samples containing 2.5 µM 14 -3-3ζ, 25 µM Tau peptide (Tau pS2, Tau pS214 or Tau pS324), […] (1% DMSO) and 5x ProteoOrange (Lumiprobe, 5000x stock in DMSO) in 10 mM HEPES, 150 mM NaCl, 50 µM TCEP (pH 7.4). […] Fluorescence intensity was determined using excitation ( λem=525/20 nm) and emission ( λex=570/20 nm) filters.
(§4) Based on these melting curves, the negative derivative melting curve is obtained from which the melting temperature Tm was determined. All described melting temperatures are based on two or three independent experiments, from which the average and standard deviations were determined. […]

[2] = molecular target: T2, 14-3-3γ/Tau pS214 complex (Homo sapiens, UniProt P61981); assay: Differential scanning fluorimetry of 14-3-3γ with Tau pS214 peptide and compounds; type: binding; details: compound 30 equiv., Tau pS214 10 equiv.
T2 construct: made in house; host or cells: NiCo21 (DE3) E. coli
T2 sequence (P61981 whole entry, other chains not shown): as above
Protocol: as §1, §2, §3, §4

Compound | increase in 14-3-3γ melting temperature on addition of compound, Tau pS324 complex [1] | increase in 14-3-3γ melting temperature on addition of compound, Tau pS214 complex [2]
O=Cc1ccc(-n2ccnc2-c2ccccc2)cc1Br [Compound 1] | ~0.6 °C | ~0.6 °C
CCc1ccc(-c2nccn2-c2ccc(C=O)c(Br)c2)cc1 [Compound 18] | ~0.2 °C | ~1.7 °C
